Columns and labels:
[1] = molecular target: T1, Pancreatic triacylglycerol lipase (Homo sapiens) (UniProt P16233)
T1 sequence (whole entry): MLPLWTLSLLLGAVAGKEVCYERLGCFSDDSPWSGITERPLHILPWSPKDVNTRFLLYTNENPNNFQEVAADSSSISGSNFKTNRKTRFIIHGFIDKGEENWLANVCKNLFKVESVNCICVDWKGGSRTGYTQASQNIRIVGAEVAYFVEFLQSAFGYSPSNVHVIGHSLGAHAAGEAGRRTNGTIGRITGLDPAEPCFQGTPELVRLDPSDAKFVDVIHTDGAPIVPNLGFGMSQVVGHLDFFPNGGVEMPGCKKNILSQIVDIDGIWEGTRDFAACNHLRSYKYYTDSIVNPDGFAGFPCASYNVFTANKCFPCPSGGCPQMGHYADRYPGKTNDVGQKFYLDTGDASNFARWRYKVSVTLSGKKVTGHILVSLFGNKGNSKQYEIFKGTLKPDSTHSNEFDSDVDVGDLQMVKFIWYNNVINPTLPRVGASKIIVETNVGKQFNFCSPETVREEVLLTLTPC
Description: Binding affinity to pancreatic lipase (unknown origin) assessed as Stem-Volmer quenching constant by fluorescence quenching based spectrophotometer analysis

[2] = molecular target: T1, Pancreatic triacylglycerol lipase (Homo sapiens); remark: listed apart in the source
Description: Binding affinity to pancreatic lipase (unknown origin) assessed as quenching constant by fluorescence quenching based spectrophotometer analysis

[3] = molecular target: T2, Pancreatic triacylglycerol lipase (Homo sapiens, UniProt P16233); test: Inhibition of pancreatic lipase (unknown origin) by spectrophotometeric analysis
T2 sequence (P16233 whole entry): T1 sequence (whole entry)

Row | SMILES | KSV [1] | Kq [2] | IC50 [3] [µM]
1 | O=C1/C(=C/c2ccccc2)Oc2cc(O)cc(O)c21 | 7.16 10^4L/mol | 4.5 10^13L/mol/s | 58.8
2 | O=c1c(O)c(-c2ccc(O)c(O)c2)oc2cc(O)cc(O)c12 | 13.3 10^4L/mol | 8.35 10^13L/mol/s | –

— ChEMBL document CHEMBL5356957, “Design, synthesis, biological evaluation and molecular docking of alkoxyaurones as potent pancreatic lipase inhibitors” (Bioorg Med Chem Lett, 2024)
